The results in this text go back to US20210015944A1, “Targeted Doxorubicin-Gold Nanocojugates for Tumor Therapy” (The Curators of the University of Missouri, priority 2017, published 2021).

The IC50 is the concentration needed to halve the response being measured.

Converted amounts (≈) assume the structure as drawn. Read-outs that look alike come from different tables or passages of the source. Bounds are passed on as bounds.

Test [1] concerns MDA-MB-231 human breast cancer cells. In words: In vitro cytotoxicity MTT assay, non-GRP expressing cells. The test is classed as cell-based. The note with it: MDA-MB231 cells; for IC50: Homo sapiens, MDA-MB-231. The procedure:
(§1) Cell culture: PC-3 human prostate and MDA-MB231 human breast carcinoma cells (ATCC, USA) were grown in RPMI 1640 medium (obtained from Gibco BRL, Grand Island, N.Y.) supplemented with 4.5 g/L D-glucose, 25 mM Hepes, 0.11 g/L sodium pyruvate, 1.5 g/L sodiumbicarbonate, 2 mM L-glutamine, 10% heat-inactivated fetal bovine serum (Atlanta Biologicals, USA) and 1% penicillin/streptomycin antibitiotic solution. Cells were cultured in a humidified atmosphere of 95% air and 5% CO2 at 37° C. (Thermo Scientific, USA), with the medium changed every other day. The cells were adherent in monolayers and when confluent were harvested from the cell culture flasks with trypsin—EDTA (Invitrogen) and seeded further apart.
In vitro Cytotoxicity Assay: In vitro cytotoxicity evaluation of NP1-DOX and NP2-DOX with respective controls such as NP1, NP2, free doxorubicin was performed on GRP expressing and non-expressing cancer cells, PC3 and MDA-MB-231, respectively. The cytotoxicity evaluation was performed in triplicates and the protocol was followed as described by the manufacturer. Briefly, 1×10^5 ml^−1 cells at the exponential growth phase were placed in a flat bottom 96-well polystyrene-coated plate and were incubated for 12 hour in a CO2 incubator at 5% CO2 and 37° C. A series of concentrations ranging from 0 to 10 ug/mL (0, 0.31, 0.625, 1.25, 2.5, 5.0 and 10 μg/mL) of NP1-Dox and NP2-Dox was prepared in the medium. Each concentration was added to the plate in quadruplets. After 24 hour incubation, 10 μL per well MTT (as received from the manufacturer, Promega Corporation, USA) was added and kept for 4 hours, and the formazan crystals so formed were dissolved in 100 μL detergent/solubilizing buffer. The plates were kept for 2 hours in dark at 25° C. to dissolve all crystals, and the intensity of developed color was measured by micro plate reader (Epoch, BioTek, USA) operating at 570 nm wavelength. Wells with complete medium, nanoparticles, and MTT, but without cells, were used as blanks. Untreated cells were considered 100% viable. […]
On the technique in general: Tetrazolium dyes change colour on reduction, which living cells bring about.

Test [2] deals with PC3 human prostate cancer cells. In words: In vitro cytotoxicity MTT assay, GRP expressing cells. It is filed as cell-based. The note with it: PC-3, 24 hour incubation, based on total weight of nanoconjugate, read-out: IC50, Nanoconjugate Conc. The procedure: as §1
In vitro Cytotoxicity Assay: In vitro cytotoxicity evaluation of NP1-DOX and NP2-DOX with respective controls such as NP1, NP2, free doxorubicin was performed on GRP expressing and non-expressing cancer cells, PC3 and MDA-MB-231, respectively. The cytotoxicity evaluation was performed in triplicates and the protocol was followed as described by the manufacturer. […] The plates were kept for 2 hours in dark at 25° C. to dissolve all crystals, and the intensity of developed color was measured by micro plate reader (Epoch, BioTek, USA) operating at 570 nm wavelength. […]

In the case of `COc1cccc2c1C(=O)c1c(O)c3c(c(O)c1C2=O)C[C@@](O)(C(=O)CO)C[C@@H]3O[C@H]1C[C@H](N)[C@H](O)[C@H](C)O1` [Doxorubicin], the IC50 was above 10 µg/mL in test [1] (24 hour incubation, MTT, based on total weight of nanoconjugate, read-out: IC50, Nanoconjugate Conc.); above 10 µg/mL in test [1] (in terms of doxorubicin loaded (0.53 μg/mg NP1-DOX, 0.3 μg/mg NP2-DOX), read-out: IC50, Doxorubicin Conc.); 9.5 µg/mL (≈ 17.5 µM) in test [2]. The “IC50, Nanoconjugate Conc.” value in test [1] (24 hour incubation, MTT, based on total weight of nanoconjugate) is above 10 µg/mL.
